Measured values: ChEMBL document CHEMBL1132006, “Synthesis and biological evaluation of coumarincarboxylic acids as inhibitors of gyrase B. L-rhamnose as an effective substitute for L-noviose” (1999)
In brackets after ≈: the same amount, converted by molar mass.

Columns and labels:
[1] = tested on: Enterococcus faecium; assay: In vitro antibacterial activity against Enterococcus faecium 02D31P2 VanTeiEry-R strain; format: functional
[2] = tested on: Staphylococcus epidermidis; assay: In vitro antibacterial activity against Staphylococcus epidermidis 012GO39 OxaTei-R strain; format: functional
[3] = tested on: Staphylococcus aureus; assay: In vitro antibacterial activity against Staphylococcus aureus 011GO76 OfloOxaEry-R strain; format: functional
[4] = tested on: Staphylococcus aureus; assay: In vitro antibacterial activity against Staphylococcus aureus 011HT1 Nov-R strain; format: functional
[5] = tested on: Staphylococcus aureus; assay: In vitro antibacterial activity against Staphylococcus aureus 011HT3 strain; format: functional
[6] = tested on: Streptococcus pyogenes; assay: In vitro antibacterial activity against Streptococcus pyogenes O2A1UC1 strain

Compound | MIC [1] | MIC [2] | MIC [3] | MIC [4] | MIC [5] | MIC [6]
CO[C@@H]1[C@@H](OC(=O)c2ccc(C)[nH]2)[C@@H](O)[C@H](Oc2ccc3c(CC(=O)O)cc(=O)oc3c2C)OC1(C)C | > 40 µg/mL | 2.5 µg/mL (≈ 4.85 µM) | 5 µg/mL (≈ 9.7 µM) | > 40 µg/mL | 2.5 µg/mL (≈ 4.85 µM) | 10 µg/mL (≈ 19.4 µM)
CCCCCc1cc(O[C@@H]2OC(C)(C)[C@H](OC)[C@@H](OC(=O)c3ccc(C)[nH]3)[C@H]2O)c(C)c2oc(=O)c(C(=O)O)cc12 | 0.3 µg/mL (≈ 0.525 µM) | < 0.04 µg/mL | 0.15 µg/mL (≈ 0.262 µM) | 2.5 µg/mL (≈ 4.37 µM) | < 0.04 µg/mL | < 0.04 µg/mL
CCCCCCCCCCCCc1cc(O[C@@H]2O[C@@H](C)[C@H](OC)[C@@H](OC(=O)c3ccc(C)[nH]3)[C@H]2O)c(C)c2oc(=O)c(C(=O)O)cc12 | > 40 µg/mL | 40 µg/mL (≈ 61 µM) | 5 µg/mL (≈ 7.62 µM) | > 40 µg/mL | 0.08 µg/mL (≈ 0.122 µM) | 0.3 µg/mL (≈ 0.457 µM)
CO[C@@H]1[C@@H](OC(=O)c2ccc(C)[nH]2)[C@@H](O)[C@H](Oc2ccc3c(C)c(CCC(=O)O)c(=O)oc3c2C)O[C@H]1C | > 40 µg/mL | > 40 µg/mL | > 40 µg/mL | > 40 µg/mL | > 40 µg/mL | 40 µg/mL (≈ 75.5 µM)
CO[C@@H]1[C@@H](OC(=O)c2ccc(C)[nH]2)[C@@H](O)[C@H](Oc2ccc3c(C)c(CC(=O)O)c(=O)oc3c2C)O[C@H]1C | > 40 µg/mL | > 40 µg/mL | > 40 µg/mL | > 40 µg/mL | > 40 µg/mL | 40 µg/mL (≈ 77.6 µM)
COC(=O)Cc1cc(=O)oc2cc(O[C@@H]3O[C@@H](C)[C@H](OC)[C@@H](OC(=O)c4ccc(C)[nH]4)[C@H]3O)ccc12 | > 40 µg/mL | > 40 µg/mL | > 40 µg/mL | > 40 µg/mL | > 40 µg/mL | > 40 µg/mL
CO[C@@H]1[C@@H](OC(=O)c2ccc(C)[nH]2)[C@@H](O)[C@H](Oc2ccc3c(CC(=O)O)cc(=O)oc3c2)O[C@H]1C | > 40 µg/mL | > 40 µg/mL | > 40 µg/mL | > 40 µg/mL | > 40 µg/mL | > 40 µg/mL
CO[C@@H]1[C@@H](OC(=O)c2ccc(C)[nH]2)[C@@H](O)[C@H](Oc2ccc3c(O)c(NC(=O)c4ccc(O)c(CC=C(C)C)c4)c(=O)oc3c2Cl)OC1(C)C [CHLOROBIOCIN] | – | < 0.04 µg/mL | < 0.04 µg/mL | 0.15 µg/mL (≈ 0.215 µM) | < 0.04 µg/mL | < 0.04 µg/mL
CO[C@@H]1[C@@H](OC(N)=O)[C@@H](O)[C@H](Oc2ccc3c(O)c(NC(=O)c4ccc(O)c(CC=C(C)C)c4)c(=O)oc3c2C)OC1(C)C [NOVOBIOCIN] | 0.3 µg/mL (≈ 0.49 µM) | 0.08 µg/mL (≈ 0.131 µM) | < 0.04 µg/mL | 20 µg/mL (≈ 32.6 µM) | < 0.04 µg/mL | 0.15 µg/mL (≈ 0.245 µM)

The next lines start with the values.

MIC [1] | MIC [2] | MIC [3] | MIC [4] | MIC [5] | MIC [6] | Compound
> 40 µg/mL | 10 µg/mL (≈ 19.9 µM) | 40 µg/mL (≈ 79.8 µM) | > 40 µg/mL | 10 µg/mL (≈ 19.9 µM) | > 40 µg/mL | CO[C@@H]1[C@@H](OC(=O)c2ccc(C)[nH]2)[C@@H](O)[C@H](Oc2ccc3c(CC(=O)O)cc(=O)oc3c2C)O[C@H]1C
0.6 µg/mL (≈ 1.02 µM) | 0.3 µg/mL (≈ 0.512 µM) | 0.3 µg/mL (≈ 0.512 µM) | 5 µg/mL (≈ 8.54 µM) | 0.08 µg/mL (≈ 0.137 µM) | 0.3 µg/mL (≈ 0.512 µM) | CCCCCCCc1cc(O[C@@H]2O[C@@H](C)[C@H](OC)[C@@H](OC(=O)c3ccc(C)[nH]3)[C@H]2O)c(C)c2oc(=O)c(C(=O)O)cc12
2.5 µg/mL (≈ 3.45 µM) | 0.6 µg/mL (≈ 0.828 µM) | 0.6 µg/mL (≈ 0.828 µM) | 2.5 µg/mL (≈ 3.45 µM) | 0.15 µg/mL (≈ 0.207 µM) | 0.3 µg/mL (≈ 0.414 µM) | CCCCCCCc1cc(O[C@@H]2O[C@@H](C)[C@H](OC)[C@@H](OC(=O)c3ccc(C)[nH]3)[C@H]2O)c(C)c2oc(=O)c(C(=O)NS(=O)(=O)c3ccccc3)cc12
2.5 µg/mL (≈ 4.48 µM) | 0.6 µg/mL (≈ 1.08 µM) | 2.5 µg/mL (≈ 4.48 µM) | 20 µg/mL (≈ 35.9 µM) | 0.6 µg/mL (≈ 1.08 µM) | 1.2 µg/mL (≈ 2.15 µM) | CCCCCc1cc(O[C@@H]2O[C@@H](C)[C@H](OC)[C@@H](OC(=O)c3ccc(C)[nH]3)[C@H]2O)c(C)c2oc(=O)c(C(=O)O)cc12
> 40 µg/mL | > 40 µg/mL | > 40 µg/mL | > 40 µg/mL | > 40 µg/mL | 40 µg/mL (≈ 82.1 µM) | CO[C@@H]1[C@@H](OC(=O)c2ccc(C)[nH]2)[C@@H](O)[C@H](Oc2ccc3cc(C(=O)O)c(=O)oc3c2C)O[C@H]1C
20 µg/mL (≈ 34.6 µM) | 2.5 µg/mL (≈ 4.33 µM) | 5 µg/mL (≈ 8.66 µM) | > 40 µg/mL | 2.5 µg/mL (≈ 4.33 µM) | 5 µg/mL (≈ 8.66 µM) | CO[C@@H]1[C@@H](OC(=O)c2ccc(C)[nH]2)[C@@H](O)[C@H](Oc2cc(Cc3ccccc3)c3cc(C(=O)O)c(=O)oc3c2C)O[C@H]1C
> 40 µg/mL | > 40 µg/mL | > 40 µg/mL | > 40 µg/mL | > 40 µg/mL | > 40 µg/mL | CO[C@@H]1[C@@H](OC(=O)c2ccc(C)[nH]2)[C@@H](O)[C@H](Oc2ccc3c(C(=O)O)cc(=O)oc3c2C)O[C@H]1C
> 40 µg/mL | 10 µg/mL (≈ 18.9 µM) | 40 µg/mL (≈ 75.5 µM) | > 40 µg/mL | 10 µg/mL (≈ 18.9 µM) | > 40 µg/mL | CCCc1cc(O[C@@H]2O[C@@H](C)[C@H](OC)[C@@H](OC(=O)c3ccc(C)[nH]3)[C@H]2O)c(C)c2oc(=O)c(C(=O)O)cc12
